# Legend:
# human DNA-PK = target: T1, human DNA-PK (Homo sapiens, UniProt P78527); test: Standard DNA-PK assay (p53 peptide phosphorylation); assay type: biochemical; settings: read-out: IC50 (nM) DNA-PK Assay
# T1 construct: The frozen HeLa cell pellet was thawed at 37° C. and immediately centrifuged; endogenous in cells; host or cells: HeLa S3 cells (ATCC CCL-2.2); Endogenous enzyme purified via S100-2 fraction, Q-Sepharose FF and SP-Sepharose FF (fraction IV)
# Method: Reactions were carried out at room temperature. Reactions were started by addition of ATP and stopped by application to phosphocellulose paper. Reaction products spotted onto phosphocellulose paper were washed five times with a total volume of at least 250 mL 10% acetic acid or 150 mM phosphoric acid. The paper was air dried and radioactivity was determined in a Beckman LS6000IC scintillation counter.
# [1] = system: cultured human tumor cell lines (Table 4) and normal human fibroblast cell line MRC5; test: Cellular toxicity, MTS dye metabolism assay; settings: 200 μM continuously for 48 h
# Method: Cultured cells were distributed on 96-well microtiter plates and allowed to adhere for at least 16 h.
# [2] = system: thymocytes from BALB/c and BALB/c p53-/p53- mice; HL60, Jurkat, JY, B16/F10, WS1; test: Cell viability, trypan blue exclusion assay; assay type: cell-based, human and mouse; settings: up to 32 μM (thymocytes), up to 25 μM (cell lines), several days
# Method: Cell viability was also tested during drug treatment using the trypan blue exclusion assay. […] Cultured cells were incubated in the presence of varying concentrations of 2-hydroxy-4-morpholin-4-yl-benzaldehyde up to 32 μM. Cultured human and mouse cell lines were incubated in RPMI 1640 media containing 10% FBS, 100 U/mL penicillin and 100 μg/mL streptomycin at 37° C. with 5% CO2 in a humidified incubator with 2-hydroxy-4-morpholin-4-yl-benzaldehyde for several days. Tumor cell lines, HL60, Jurkat, JY and B16/F10 and the normal cell line WS1 were tested using this assay when incubated at drug concentrations up to 25 μM.
# [3] = Pharmacokinetic analysis after subcutaneous administration; assay type: in vivo, mice
# [4] = system: HCT116 cells (human colon carcinoma) xenograft tumors; test: Animal tumor model, drug plus γ-radiation; assay type: in vivo, athymic BALB/c (nu/nu) mice; parameters: tumor growth with radiation plus drug: dose or concentration left out as unconfirmed
# Method: HCT116 cells (human colon carcinoma) were used to propagate xenograft tumors in 6-8 week old female athymic BALB/c (nu/nu) mice. Mice were maintained in a laminar airflow cabinet under pathogen-free conditions and fed sterile food and water ad libitum. HCT116 cells were grown to subconfluence in McCoy's media supplemented with 10% FBS, 100 U/mL penicillin, 100 μg/mL streptomycin, and 1.5 mM L-glutamine in a 5% CO2 humidified environment. Single cell suspensions were prepared in CMF-PBS (0.9 mM KCl, 2.7 mM KH2PO4, 13.8 mM NaCl, pH 7.5), and cell concentration adjusted to 4×10^7 cells/mL. Mice were inoculated subcutaneously (s.c.) on the right flank or right leg with a total of 4×10^6 cells (100 μL).
# Mice were randomized (5 mice/group) into four treatment groups and used when tumors reached a weight of 75 to 100 mg (usually 7 to 11 days post-inoculation). Tumors were measured with vernier calipers and tumor weights were estimated using the empirically-derived formula below. Tumor weight(mg)=tumor length(mm)×tumor width(mm)^2/3.3. […] Tumor size was monitored every other day for the duration of the experiment.
# [5] = system: Colon carcinoma cells (HCT116)
# [6] = system: DR3 cells (cultured mouse B-lymphocytes); test: V(D)J recombination assay; assay type: cell-based; settings: 50 μM
# Method: Recombination assays were performed as previously described (Leu et al., Mol. Cell. Biol 15:5657-5670 (1995)). […] Cells were concentrated and washed in HBS (containing 30 mM HEPES-KOH, pH 7.5, 140 mM NaCl, and 5 mM KCl) and resuspended in HBS at a density of 2.0×10^8 cells/mL. Cells (1.0×10^7) were transiently transfected by electroporation with 10 μg of the recombination substrate pJH200 (Leu et al., Mol. Cell. Biol. 15:5657-5670 (1995)) and transferred to a 90 mm cell culture dish containing 8 mL media with or without 2-hydroxy-4-morpholin-4-yl-benzaldehyde as described above. After 2 days, cells were removed from the dish with a rubber policeman, concentrated, washed one time with PBS, and resuspended in 0.1 mL lysis buffer (0.3% Triton X-100, 50 mM Tris-HCl, pH 7.5, 50 mM EDTA). Following a five min incubation at room temperature, cellular debris was removed by centrifugation at 12,000 rpm for two min in a microfuge. The supernatant was extracted sequentially with phenol and chloroform/[…] (24:1), after which, one tenth volume 3 M sodium acetate and 2 volumes cold 100% ethanol were added to the aqueous phase. Precipitated nucleic acid was collected by centrifugation at 12,000 rpm for 15 min and suspended in 25 μL water. An aliquot of the material was used to transform DH5α cells by electroporation. […]
# [7] = system: human colon carcinoma cell line HCT116; test: cells; assay type: cell-based
# Method: Cells plated at a density of 5,000 to 20,000 per well in 96-well microtiter plates were grown in RMPI 1640 containing 10% FBS, 100 U/mL penicillin and 100 μg/mL streptomycin, for 18 h at 37° C. in a humidified incubator with 5% CO2. Cells tested included ACHN, 786-0, HCT-116, SW620, SK-MEL-5, SK-MEL-28, A549, H322, OVCAR-3, SK-OV-3, MCF-7, MDA-MB-231, MOLT4, HL60, SNB-19, PC-3. Cells were treated with media containing chemotherapeutic drugs alone or with media containing chemotherapeutic drugs and a DNA-PK inhibitor of the invention, 1-(2-hydroxy-4-morpholin-4-yl-phenyl)-ethanone. Cells were incubated for two days before growth was measured using a tetrazolium dye assay (MTS). Chemotherapeutic drugs included bleomycin etoposide, vinblastine, doxorubicin, paclitaxel, cisplatin, chlorambucil, cyclophosphamide, 5-fluorouracil, cytosine-arabinoside, 6-mercaptoguanine and methotrexate (all purchased from Sigma). The drug concentration necessary to inhibit cell growth to 50% of untreated control cells was defined as the GI50.
# [8] = system: MDA-MB231 (human breast carcinoma) cells; test: DNA double-strand break repair assay (pulse field electrophoresis); assay type: cell-based; settings: 25 Gy; concentrations which enhanced radiation induced cell killing
# Method: To further determine the cellular effect of DNA-PK inhibitors, an assay to measure chromosomal discontinuities was employed. Ionizing radiation induces chromosomal DNA double-strand breaks. Following high dose radiation, chromosomes can be extracted from cells and fractionated by pulse field electrophoresis to distinguish chromosomal fragments from intact larger chromosomes. Using this technique, the activity of DNA-PK inhibitors was measured.
# MDA-MB231 (human breast carcinoma) cells were seeded onto T25 flasks with RPMI1640+10% FBS, 2 mM L-glutamine, penicillin G 100 U/ml-streptomycin sulfate 10 μg/ml, 1 mM Na pyruvate. When confluent, media was removed and replaced with media containing DNA-PK inhibitor or vehicle. Cells were incubated at 37° C. for 1 hr in a humidified chamber with 5% CO2. Media then was removed and flasks were filled with ice-cold D-PBS and either: (a) processed immediately; (b) irradiated (25 Gy in a ^137Cs Mark I irradiator at a flux of 335 rad/min) and processed immediately; (c) irradiated and incubated for 2 hr in complete RPMI1640+vehicle at 37° C. (in humidified 5% CO2 atmosphere to allow for DNA repair), or (d) irradiated and incubated for 2 hr in complete RPMI1640+DNA-PK inhibitor compound. […] Chromosomal DNA was visualized with SYBR-Gold (Molecular probes # S-11494) and the fluorescent image quantified on the STORM 860 (Molecular Dynamics).
smiles,measurement,setting,value
"O=Cc1ccc(N2CCOCC2)cc1O [Example 32, 2-Hydroxy-4-morpholin-4-yl-benzaldehyde]",IC50,human DNA-PK,400 nM
same,"killing of cell lines, MTS dye metabolism assay",[1],no evidence of killing
same,"cells sensitive to killing, trypan blue exclusion method",[2],In no instances were cells sensitive to killing
same,duration of high plasma concentration,[3],remained high for about one hour
same,tumors shrank,"[4]; average tumor burden 500 mg, drug and 300 rad once daily for two days",greater than 10 fold
same,sensitivity of HCT116 to killing by γ-radiation,[5]; 200 μM,increased the sensitivity
same,DNA rearrangement (V(D)J recombination) inhibited,[6],8 fold
"CC(=O)c1ccc(N2CCOCC2)cc1O [Example 34, 1-(2-Hydroxy-4-morpholin-4-yl-phenyl)-ethanone]",IC50,human DNA-PK,120 nM
same,GI50 (bleomycin) reduced,"[7]; 100 μM inhibitor, two days",7 fold
same,potentiation of growth inhibitory effects of agents that do not induce DNA dsbs,"[7]; vinblastine, doxorubicin, paclitaxel, cisplatin, cyclophosphamide, 5-fluorouracil, cytosine-arabinoside, 6-mercaptoguanine, methotrexate",did not potentiate
same,chlorambucil GI50 reduced,"[7]; with inhibitor, two days",10 fold
same,etoposide GI50 reduced,"[7]; with inhibitor, two days",10 fold
same,duration of high plasma concentration,[3],remained high for about one hour
same,tumor growth with radiation plus drug,[4]; 250 rad plus drug once daily for five days,no increase in tumor growth
same,effect of drug alone on cell division,[5],no effect on cell division
same,enhancement of etoposide LD50,[5],15 fold
same,enhancement of etoposide LD90,[5],3 fold
same,radiation LD50 lower than in the absence of drug,[5]; 200 μM,4 fold
same,radiation LD90 lower than without drug,[5]; 200 μM,4 fold
same,sensitivity of HCT116 to killing by γ-radiation,[5]; 200 μM,increased the sensitivity
same,radiation dosage which kills 50% of the cells (LD50) in the presence of drug,"[5]; 200 μM, 150 rad without drug",35 rad
same,radiation dose that kills 90% of the cells (LD90) with drug,"[5]; 200 μM, 410 rad without drug",100 rad
same,"D0, slope of the survival curve, with drug",[5]; 150 rad without drug,50 rad
same,chromosomal DNA double-strand break repair,[8],inhibited DNA double-strand break repair

# — patent US8242115B2, “Materials and methods to potentiate cancer treatment” (Luitpold Pharmaceuticals, Inc., priority 2000, dated 2012)
